Laboratory results as given in patent publication US20090047742A1 (priority 2005, published 2009).

Test system: human GAPDH and β-actin mRNA
Experiment: Northern blot analysis of cellular mRNA in T-Rex-293 cells
Type: cell-based
Conditions: T-Rex-293 (mazF/pcDNA3) cells
Protocol: Northern blot analysis and real-time PCR (RT-PCR) was preformed as previously described (Zhang, Y., et al., Mol. Cell 12: 913-923 (2003); Cuconati, A., et al., Genes Dev. 17: 2922-2932 (2003)). Total RNA from tetracycline-treated (0, 24, 48 and 72 hr) or untreated (0, 24, 48 and 72 hr) T-Rex-293 (mazF/pcDNA3) and T-Rex-293 (mazF/mazE) cells for were isolated through the use of Trizol Reagent (Gibco, Carlsbad, Calif.). For Northern blot analysis, 10 μg of total RNA from each condition was subjected to formaldehyde-agarose gel electrophoresis followed by transfer onto GeneScreen Plus membrane (NEN Life Science Products, Boston, Mass.). The blot was hybridized with ^32P-labeled human GAPDH or β-actin cDNA. One hundred ng of total RNA was subjected to real time RT-PCR with the Taqman EZ-RT PCR kit (PE Applied Biosystems, Lincoln Centre Drive Foster City, Calif.) using recommended conditions provided by the vendor. Primers to analyze the level of human GAPDH mRNA were obtained from Applied Biosystems, and a probe for GAPDH was supplied with 5′ linkage to the reporter dye 2, 7-dimethoxy-4, 5-dichloro-6-carboxy-fluoroecein (JOE), and 3′ linkage to the quencher 6-carboxy-tetramethylrhodamine (TAMURA). β-actin primer sequences were 5′-[…]-3′ and 5′-[…]-3′. β-actin probe sequence was FAM-5′-[…] TTCC-3′-TAMURA. Reactions were carried out in triplicate and the relative amount of human GAPDH and β-actin mRNA was calculated from the difference in fluorescence signal in the 24-, 48- and 72-hr samples compared with the corresponding 0 hr sample.
To assess cellular mRNA levels, total RNA was isolated from whole cells of Tet-treated or -untreated T-Rex-293 cells and subjected to Northern blot analysis using human GAPDH and β-actin cDNA probes. […] Labeled single-stranded DNA fragments complementary to the specific mRNA being sought then are hybridized to the bound mRNA and the label detected by suitable means. […]

For “MazF: E. coli toxin; sequence specific endoribonuclease (mRNA interferase) cleaving single-stranded RNAs at ACA sequences; expressed from plasmid pcDNA4/TO/mazF”, the “levels of both GAPDH and β-actin mRNAs (Northern blot)” value (48 hours post-induction of MazF) was “almost completely lost” and the “levels of both GAPDH and β-actin mRNAs (Northern blot)” value (after 24 hours of MazF induction by Tet) was “dramatically decreased”.
